Laboratory results published in PubChem BioAssay (NCI).
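96-well plates; 48 h exposure; 5 concentrations. Endpoints by linear interpolation between flanking doses. Not reached: highest tested concentration assigned. TGI: total growth inhibition.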

Tested on: SK-MEL-2 melanoma
Test: NCI-60 cell line screen, 48 h

`COc1ccc(Cc2c(N)[nH]c(=O)[nH]c2=O)cc1` and `OCc1cc2c([nH]c3ccccc32)c(C(O)CO)n1` (stereo unspecified) cannot be ordered by TGI: > 100 µM for the first, > 100 µM for the second.

Compared with `O=C1c2c(O)ccc(O)c2C(=O)c2c(NCCNC(=O)C(O)C(O)C(O)C(O)CO)ccc(NCCNC(=O)C(O)C(O)C(O)C(O)CO)c21` (stereo unspecified), `CC1=C(C)C(=O)C(C2=C(C3=CC(=O)C(C)=C(C)C3=O)C(=O)C(C)=C(C)C2=O)=CC1=O` is 11-fold higher in TGI: 2.88 µM for the first, 31 µM for the second.

With `CN1C(=O)C(/C=N/NC(=O)c2cccnc2)C(N)N(C)C1=O` (stereo unspecified) the TGI was > 100 µM.

Tested on: SK-MEL-28 melanoma
Test: NCI-60 cell line screen, 48 h

`COc1ccc(Cc2c(N)[nH]c(=O)[nH]c2=O)cc1` and `OCc1cc2c([nH]c3ccccc32)c(C(O)CO)n1` (stereo unspecified) cannot be ordered by TGI: > 100 µM for the first, > 100 µM for the second.

Going from `CN1C(=O)C(/C=N/NC(=O)c2cccnc2)C(N)N(C)C1=O` (stereo unspecified) to `CC1=C(C)C(=O)C(C2=C(C3=CC(=O)C(C)=C(C)C3=O)C(=O)C(C)=C(C)C2=O)=CC1=O`, the TGI falls from > 100 µM to 14 µM.

Tested on: SK-MEL-5 melanoma
Test: NCI-60 cell line screen, 48 h

`COc1ccc(Cc2c(N)[nH]c(=O)[nH]c2=O)cc1` and `OCc1cc2c([nH]c3ccccc32)c(C(O)CO)n1` (stereo unspecified) cannot be ordered by TGI: > 100 µM for the first, > 100 µM for the second.

Compared with `O=C1c2c(O)ccc(O)c2C(=O)c2c(NCCNC(=O)C(O)C(O)C(O)C(O)CO)ccc(NCCNC(=O)C(O)C(O)C(O)C(O)CO)c21` (stereo unspecified), `CC1=C(C)C(=O)C(C2=C(C3=CC(=O)C(C)=C(C)C3=O)C(=O)C(C)=C(C)C2=O)=CC1=O` is 11-fold higher in TGI: 0.522 µM for the first, 5.85 µM for the second.

In the case of `CN1C(=O)C(/C=N/NC(=O)c2cccnc2)C(N)N(C)C1=O` (stereo unspecified), the TGI is reported as > 100 µM.

Tested on: SK-OV-3 ovarian
Test: NCI-60 cell line screen, 48 h

`COc1ccc(Cc2c(N)[nH]c(=O)[nH]c2=O)cc1` and `OCc1cc2c([nH]c3ccccc32)c(C(O)CO)n1` (stereo unspecified) cannot be ordered by TGI: > 100 µM for the first, > 100 µM for the second.

Compared with `O=C1c2c(O)ccc(O)c2C(=O)c2c(NCCNC(=O)C(O)C(O)C(O)C(O)CO)ccc(NCCNC(=O)C(O)C(O)C(O)C(O)CO)c21` (stereo unspecified), `CC1=C(C)C(=O)C(C2=C(C3=CC(=O)C(C)=C(C)C3=O)C(=O)C(C)=C(C)C2=O)=CC1=O` is 23-fold higher in TGI: 1.41 µM for the first, 32.6 µM for the second.

With `CN1C(=O)C(/C=N/NC(=O)c2cccnc2)C(N)N(C)C1=O` (stereo unspecified) the TGI was > 100 µM.

Tested on: SN12C renal
Test: NCI-60 cell line screen, 48 h

`COc1ccc(Cc2c(N)[nH]c(=O)[nH]c2=O)cc1` and `OCc1cc2c([nH]c3ccccc32)c(C(O)CO)n1` (stereo unspecified) cannot be ordered by TGI: > 100 µM for the first, > 100 µM for the second.

First: O=C1c2c(O)ccc(O)c2C(=O)c2c(NCCNC(=O)C(O)C(O)C(O)C(O)CO)ccc(NCCNC(=O)C(O)C(O)C(O)C(O)CO)c21 (stereo unspecified)
Second: CC1=C(C)C(=O)C(C2=C(C3=CC(=O)C(C)=C(C)C3=O)C(=O)C(C)=C(C)C2=O)=CC1=O
The TGI of the first is 4100-fold lower: 0.0118 µM for the first, 47.9 µM for the second.

`CN1C(=O)C(/C=N/NC(=O)c2cccnc2)C(N)N(C)C1=O` (stereo unspecified) was tested, and the TGI was > 100 µM.

Tested on: SNB-19 CNS
Test: NCI-60 cell line screen, 48 h

`COc1ccc(Cc2c(N)[nH]c(=O)[nH]c2=O)cc1` and `OCc1cc2c([nH]c3ccccc32)c(C(O)CO)n1` (stereo unspecified) cannot be ordered by TGI: > 100 µM for the first, > 100 µM for the second.

`CN1C(=O)C(/C=N/NC(=O)c2cccnc2)C(N)N(C)C1=O` (stereo unspecified) and `CC1=C(C)C(=O)C(C2=C(C3=CC(=O)C(C)=C(C)C3=O)C(=O)C(C)=C(C)C2=O)=CC1=O` cannot be ordered by TGI: > 100 µM for the first, > 100 µM for the second.

Tested on: SNB-75 CNS
Test: NCI-60 cell line screen, 48 h

`COc1ccc(Cc2c(N)[nH]c(=O)[nH]c2=O)cc1` and `OCc1cc2c([nH]c3ccccc32)c(C(O)CO)n1` (stereo unspecified) cannot be ordered by TGI: > 100 µM for the first, > 100 µM for the second.

Going from `O=C1c2c(O)ccc(O)c2C(=O)c2c(NCCNC(=O)C(O)C(O)C(O)C(O)CO)ccc(NCCNC(=O)C(O)C(O)C(O)C(O)CO)c21` (stereo unspecified) to `CC1=C(C)C(=O)C(C2=C(C3=CC(=O)C(C)=C(C)C3=O)C(=O)C(C)=C(C)C2=O)=CC1=O`, the TGI rises from 1.23 µM to 33.3 µM (27-fold).

`CN1C(=O)C(/C=N/NC(=O)c2cccnc2)C(N)N(C)C1=O` (stereo unspecified) was tested, and the TGI was > 100 µM.

Tested on: SW-620 colon
Test: NCI-60 cell line screen, 48 h

`COc1ccc(Cc2c(N)[nH]c(=O)[nH]c2=O)cc1` and `OCc1cc2c([nH]c3ccccc32)c(C(O)CO)n1` (stereo unspecified) cannot be ordered by TGI: > 100 µM for the first, > 100 µM for the second.

Compared with `CN1C(=O)C(/C=N/NC(=O)c2cccnc2)C(N)N(C)C1=O` (stereo unspecified), `CC1=C(C)C(=O)C(C2=C(C3=CC(=O)C(C)=C(C)C3=O)C(=O)C(C)=C(C)C2=O)=CC1=O` is lower in TGI: > 100 µM for the first, 13 µM for the second.

Tested on: T-47D breast
Test: NCI-60 cell line screen, 48 h

`COc1ccc(Cc2c(N)[nH]c(=O)[nH]c2=O)cc1` and `OCc1cc2c([nH]c3ccccc32)c(C(O)CO)n1` (stereo unspecified) cannot be ordered by TGI: > 100 µM for the first, > 100 µM for the second.

Going from `O=C1c2c(O)ccc(O)c2C(=O)c2c(NCCNC(=O)C(O)C(O)C(O)C(O)CO)ccc(NCCNC(=O)C(O)C(O)C(O)C(O)CO)c21` (stereo unspecified) to `CC1=C(C)C(=O)C(C2=C(C3=CC(=O)C(C)=C(C)C3=O)C(=O)C(C)=C(C)C2=O)=CC1=O`, the TGI rises from 2.35 µM to 7.32 µM (3.1-fold).

For `CN1C(=O)C(/C=N/NC(=O)c2cccnc2)C(N)N(C)C1=O` (stereo unspecified), the TGI was > 100 µM.

Tested on: TK-10 renal
Test: NCI-60 cell line screen, 48 h

`COc1ccc(Cc2c(N)[nH]c(=O)[nH]c2=O)cc1` and `OCc1cc2c([nH]c3ccccc32)c(C(O)CO)n1` (stereo unspecified) cannot be ordered by TGI: > 100 µM for the first, > 100 µM for the second.

First: O=C1c2c(O)ccc(O)c2C(=O)c2c(NCCNC(=O)C(O)C(O)C(O)C(O)CO)ccc(NCCNC(=O)C(O)C(O)C(O)C(O)CO)c21 (stereo unspecified)
Second: CC1=C(C)C(=O)C(C2=C(C3=CC(=O)C(C)=C(C)C3=O)C(=O)C(C)=C(C)C2=O)=CC1=O
The TGI of the first is 20-fold lower: 1.37 µM for the first, 27 µM for the second.

In the case of `CN1C(=O)C(/C=N/NC(=O)c2cccnc2)C(N)N(C)C1=O` (stereo unspecified), the TGI is reported as > 100 µM.

Tested on: U251 CNS
Test: NCI-60 cell line screen, 48 h

`COc1ccc(Cc2c(N)[nH]c(=O)[nH]c2=O)cc1` and `OCc1cc2c([nH]c3ccccc32)c(C(O)CO)n1` (stereo unspecified) cannot be ordered by TGI: > 100 µM for the first, > 100 µM for the second.

`CN1C(=O)C(/C=N/NC(=O)c2cccnc2)C(N)N(C)C1=O` (stereo unspecified) and `CC1=C(C)C(=O)C(C2=C(C3=CC(=O)C(C)=C(C)C3=O)C(=O)C(C)=C(C)C2=O)=CC1=O` cannot be ordered by TGI: > 100 µM for the first, > 38.2 µM for the second.

Tested on: UACC-257 melanoma
Test: NCI-60 cell line screen, 48 h

`COc1ccc(Cc2c(N)[nH]c(=O)[nH]c2=O)cc1` and `OCc1cc2c([nH]c3ccccc32)c(C(O)CO)n1` (stereo unspecified) cannot be ordered by TGI: > 100 µM for the first, > 100 µM for the second.

Compared with `O=C1c2c(O)ccc(O)c2C(=O)c2c(NCCNC(=O)C(O)C(O)C(O)C(O)CO)ccc(NCCNC(=O)C(O)C(O)C(O)C(O)CO)c21` (stereo unspecified), `CC1=C(C)C(=O)C(C2=C(C3=CC(=O)C(C)=C(C)C3=O)C(=O)C(C)=C(C)C2=O)=CC1=O` is 3.9-fold higher in TGI: 7.24 µM for the first, 28.4 µM for the second.

For `CN1C(=O)C(/C=N/NC(=O)c2cccnc2)C(N)N(C)C1=O` (stereo unspecified), the TGI was > 100 µM.

Tested on: UACC-62 melanoma
Test: NCI-60 cell line screen, 48 h

`COc1ccc(Cc2c(N)[nH]c(=O)[nH]c2=O)cc1` and `OCc1cc2c([nH]c3ccccc32)c(C(O)CO)n1` (stereo unspecified) cannot be ordered by TGI: > 100 µM for the first, > 100 µM for the second.

First: O=C1c2c(O)ccc(O)c2C(=O)c2c(NCCNC(=O)C(O)C(O)C(O)C(O)CO)ccc(NCCNC(=O)C(O)C(O)C(O)C(O)CO)c21 (stereo unspecified)
Second: CC1=C(C)C(=O)C(C2=C(C3=CC(=O)C(C)=C(C)C3=O)C(=O)C(C)=C(C)C2=O)=CC1=O
The TGI of the first is 25-fold lower: 1.04 µM for the first, 25.9 µM for the second.

`CN1C(=O)C(/C=N/NC(=O)c2cccnc2)C(N)N(C)C1=O` (stereo unspecified) was tested, and the TGI was > 100 µM.

Tested on: UO-31 renal
Test: NCI-60 cell line screen, 48 h

`COc1ccc(Cc2c(N)[nH]c(=O)[nH]c2=O)cc1` and `OCc1cc2c([nH]c3ccccc32)c(C(O)CO)n1` (stereo unspecified) cannot be ordered by TGI: > 100 µM for the first, > 100 µM for the second.

First: O=C1c2c(O)ccc(O)c2C(=O)c2c(NCCNC(=O)C(O)C(O)C(O)C(O)CO)ccc(NCCNC(=O)C(O)C(O)C(O)C(O)CO)c21 (stereo unspecified)
Second: CC1=C(C)C(=O)C(C2=C(C3=CC(=O)C(C)=C(C)C3=O)C(=O)C(C)=C(C)C2=O)=CC1=O
The TGI of the first is 97-fold lower: 0.352 µM for the first, 34.1 µM for the second.

`CN1C(=O)C(/C=N/NC(=O)c2cccnc2)C(N)N(C)C1=O` (stereo unspecified) was tested, and the TGI was > 100 µM.
